By AC50 is commonly meant the concentration at which the activity in the assay is half-maximal.

Activity calls are given as the source filed them.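 Rule for the calls: active = parasite count per well reduced by over 3 SD from the mean, with host cell number above 80% of untreated; inactive = the rest.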

In PubChem BioAssay AID977614 (Broad Institute, 2014) one finds AC50 data, which are given here for 69 molecules.

In the assay the test system is L. donovani amastigotes in THP-1 macrophages, DAPI imaging, 72 h. As to the kind of experiment: L. donovani intracellular amastigote growth inhibitors, imaging, THP-1 host macrophages, single concentration (AID 977614).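 Note: signal is the parasite per host cell ratio from DAPI stained kinetoplasts and nuclei.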
As to `O=C(c1ccccn1)N1C[C@@H]2[C@H](c3ccccc31)[C@H](CO)N2C(=O)Nc1ccccc1Cl`, the AC50 was > 10 µM (inactive).

In the case of `C/C=C/c1ccc([C@H]2[C@@H](CO)N[C@@H]2CN(CC(C)C)C(=O)c2ccccn2)cc1`, the AC50 is > 10 µM (inactive).

As to `CCC(=O)N1[C@@H]2CN(C(=O)Nc3ccc(Cl)cc3)c3ccccc3[C@@H]2[C@@H]1CO`, the AC50 is > 10 µM (inactive).

With `CN(C[C@@H]1[C@@H](c2ccccc2)[C@H](CO)N1Cc1ccccn1)S(C)(=O)=O`, the AC50 is > 10 µM (inactive).

Regarding `O=C(C1CCOCC1)N1C[C@H]2[C@@H](c3ccccc31)[C@H](CO)N2C(=O)Cc1ccccn1`, the AC50 was > 10 µM (inactive).

For the molecule `CN1[C@H](CO)[C@H]2c3ccccc3NC[C@H]21`, the AC50 was > 10 µM (inactive).

`O=C(Nc1ccc(F)cc1)N1C[C@@H]2[C@H](c3ccccc31)[C@@H](CO)N2C(=O)c1ccncc1`: the AC50 was > 10 µM (inactive).

In the case of `C[C@@H]1CN([C@@H](C)CO)C(=O)CCCn2nncc2CO[C@@H]1CN(C)C(=O)c1ccc(N2CCN(C)CC2)cc1`, the AC50 is > 10 µM (inactive).

Take `O=C(c1ccccc1F)N1C[C@@H]2[C@H](c3ccccc31)[C@@H](CO)N2Cc1ccc2c(c1)OCO2`: the AC50 is > 10 µM (inactive).

Regarding `C[C@@H]1CN([C@@H](C)CO)C(=O)CCCn2cc(nn2)CO[C@H]1CN(C)C(=O)NC1CCCCC1`, the AC50 is > 10 µM (inactive).

Consider `CCC(=O)NC[C@@H]1[C@@H](c2ccc(-c3ccc(F)cc3)cc2)[C@@H](CO)N1C(=O)CC`, for which the AC50 was > 10 µM (inactive).

In the case of `CC(=O)N1[C@H](CO)[C@@H](c2ccccc2)[C@H]1CN(CC(C)C)C(=O)c1ccccn1`, the AC50 was > 10 µM (inactive).

Turning to `COCC(=O)N1[C@@H](CO)[C@@H]2c3ccccc3N(C(=O)Nc3ccccc3Cl)C[C@@H]21`, the AC50 was > 10 µM (inactive).

Take `C[C@H](CO)N1C[C@H](C)[C@@H](CN(C)S(=O)(=O)c2ccccc2C#N)OCc2cnnn2CCCC1=O`: the AC50 is > 10 µM (inactive).

In the case of `Cc1noc(C)c1S(=O)(=O)N(C)C[C@@H]1OCc2cnnn2CCCC(=O)N([C@H](C)CO)C[C@@H]1C`, the AC50 was > 10 µM (inactive).

Consider `O=C(Nc1cccc(Cl)c1)N1C[C@@H]2[C@H](c3ccccc31)[C@H](CO)N2Cc1cccnc1`, for which the AC50 was > 10 µM (inactive).

On to `COCC(=O)N1[C@@H]2CN(C(=O)c3cccnc3)c3ccccc3[C@@H]2[C@@H]1CO`, for which the AC50 is > 10 µM (inactive).

Consider `C[C@H]1CN([C@@H](C)CO)C(=O)CCCn2nncc2CO[C@@H]1CN(C)Cc1ccc(C(=O)Nc2ccccc2N)cc1`, for which the AC50 was > 10 µM (inactive).

`CNC[C@H]1OCc2cnnn2CCCC(=O)N([C@@H](C)CO)C[C@@H]1C`: the AC50 is > 10 µM (inactive).

Regarding `C/C=C/c1ccc([C@H]2[C@@H](CO)N(CCC)[C@H]2CNC(=O)CN2CCOCC2)cc1`, the AC50 is > 10 µM (inactive).

`CNC[C@H]1OCc2cn(nn2)CCCC(=O)N([C@H](C)CO)C[C@H]1C`: the AC50 is > 10 µM (inactive).

For the molecule `O=C(NC[C@H]1[C@@H](c2ccccc2)[C@H](CO)N1Cc1cccnc1)c1ccccn1`, the AC50 was > 10 µM (inactive).

Regarding `C[C@@H]1CN([C@@H](C)CO)C(=O)CCCn2nncc2CO[C@@H]1CN(C)S(=O)(=O)c1cn(C)cn1`, the AC50 is > 10 µM (inactive).

Take `C[C@H]1CN([C@@H](C)CO)C(=O)CCCn2nncc2CO[C@@H]1CN(C)C(=O)Nc1ccccc1C(F)(F)F`: the AC50 is > 10 µM (inactive).

With `O=C(c1ccc2c(c1)OCO2)N1C[C@@H]2[C@H](c3ccccc31)[C@H](CO)N2Cc1cccnc1`, the AC50 is > 10 µM (inactive).

On to `C[C@@H]1CN([C@H](C)CO)C(=O)CCCn2cc(nn2)CO[C@H]1CN(C)C(=O)Nc1ccc2c(c1)OCO2`, for which the AC50 was > 10 µM (inactive).

Regarding `C[C@@H]1CN([C@@H](C)CO)C(=O)CCCn2nncc2CO[C@H]1CN(C)Cc1ccc2cccnc2c1`, the AC50 was > 10 µM (inactive).

For `CCN(C[C@@H]1N[C@@H](CO)[C@H]1c1ccc(-c2ccc(F)cc2)cc1)C(=O)CN(C)C`, the AC50 is > 10 µM (inactive).

Regarding `CCCC#Cc1ccc([C@H]2[C@@H](CO)N[C@@H]2CN(C(C)=O)C2CCCC2)cc1`, the AC50 was > 10 µM (inactive).

On to `O=C(NC[C@H]1[C@@H](c2ccccc2)[C@H](CO)N1C(=O)C1CCC1)NC1CCCC1`, for which the AC50 is > 10 µM (inactive).

Take `O=C(c1ccncc1)N1C[C@@H]2[C@H](c3ccccc31)[C@@H](CO)N2Cc1ccccc1F`: the AC50 is > 10 µM (inactive).

As to `C[C@H]1CN([C@@H](C)CO)C(=O)CCCn2cc(nn2)CO[C@@H]1CN(C)C(=O)Nc1cccc(C(F)(F)F)c1`, the AC50 is > 10 µM (inactive).

On to `C[C@@H]1CN([C@H](C)CO)C(=O)CCCn2nncc2CO[C@@H]1CN(C)Cc1cccc2c1OCCCO2`, for which the AC50 is > 10 µM (inactive).

`CNC[C@H]1OCc2cn(nn2)CCCC(=O)N([C@@H](C)CO)C[C@@H]1C`: the AC50 is > 10 µM (inactive).

On to `CN(C[C@@H]1N[C@H](CO)[C@H]1c1ccc(C2=CCCC2)cc1)C(=O)c1cccc(F)c1`, for which the AC50 was > 10 µM (inactive).

For the molecule `C[C@H](CO)N1C[C@H](C)[C@H](CN(C)Cc2ccc(C(=O)Nc3ccccc3N)cc2)OCc2cnnn2CCCC1=O`, the AC50 was > 10 µM (inactive).

On to `N#Cc1cccc(-c2ccc([C@H]3[C@@H](CO)N[C@@H]3CNC(=O)C3CCC3)cc2)c1`, for which the AC50 is > 10 µM (inactive).

With `CCC(=O)N1C[C@@H]2[C@H](c3ccccc31)[C@@H](CO)N2C(=O)CC1CC1`, the AC50 was > 10 µM (inactive).

On to `CCCNC(=O)N1[C@@H]2CN(C(=O)Nc3cccc(Cl)c3)c3ccccc3[C@@H]2[C@@H]1CO`, for which the AC50 is > 10 µM (inactive).

Take `COc1ccc(CN2[C@H](CO)[C@@H]3c4ccccc4NC[C@@H]32)cc1`: the AC50 was > 10 µM (inactive).

Turning to `C[C@@H]1CN([C@H](C)CO)C(=O)CCCn2cc(nn2)CO[C@H]1CN(C)S(=O)(=O)c1cccc(C#N)c1`, the AC50 was > 10 µM (inactive).

For the molecule `C[C@@H]1CN([C@@H](C)CO)C(=O)CCCn2cc(nn2)CO[C@@H]1CN(C)Cc1ccccc1`, the AC50 was > 10 µM (inactive).

Take `O=C(c1ccccc1F)N1C[C@H]2[C@@H](c3ccccc31)[C@@H](CO)N2Cc1ccc2c(c1)OCO2`: the AC50 was > 10 µM (inactive).

As for `CCCNC(=O)N1[C@H](CO)[C@H]2c3ccccc3N(C(=O)Nc3cccc(Cl)c3)C[C@H]21`, the AC50 was > 10 µM (inactive).

Regarding `C[C@@H]1CN([C@@H](C)CO)C(=O)CCCn2nncc2CO[C@H]1CN(C)S(=O)(=O)c1cn(C)cn1`, the AC50 was > 10 µM (inactive).

As to `C[C@H](CO)N1C[C@H](C)[C@@H](CN(C)Cc2ccc3c(c2)OCCN3C)OCc2cnnn2CCCC1=O`, the AC50 was > 10 µM (inactive).

`OC[C@@H]1[C@@H]2c3ccccc3NC[C@@H]2N1Cc1cccnc1`: the AC50 is > 10 µM (inactive).

`O=C(NC[C@@H]1[C@@H](c2ccccc2)[C@H](CO)N1C(=O)Cc1ccncc1)C1CCC1`: the AC50 was > 10 µM (inactive).

Turning to `COc1ccccc1NC(=O)N1C[C@H]2[C@@H](c3ccccc31)[C@@H](CO)N2Cc1ccc2c(c1)OCO2`, the AC50 is > 10 µM (inactive).

`C[C@H]1CN([C@@H](C)CO)C(=O)CCCn2nncc2CO[C@H]1CN(C)C(=O)Oc1cccc2ccccc12`: the AC50 was > 10 µM (inactive).

`O=C(c1ccccn1)N1C[C@H]2[C@@H](c3ccccc31)[C@@H](CO)N2C(=O)Nc1ccccc1Cl`: the AC50 is > 10 µM (inactive).

Turning to `CCC(=O)N1[C@H](CO)[C@@H]2c3ccccc3N(C(=O)c3cnccn3)C[C@@H]21`, the AC50 was > 10 µM (inactive).

In the case of `C[C@H](CO)N1C[C@H](C)[C@H](CN(C)S(=O)(=O)c2cn(C)cn2)OCc2cnnn2CCCC1=O`, the AC50 was > 10 µM (inactive).

As to `O=C(Nc1ccc(F)cc1)N1C[C@H]2[C@@H](c3ccccc31)[C@@H](CO)N2C(=O)c1ccncc1`, the AC50 is > 10 µM (inactive).

As to `COc1ccc(CN2[C@@H]3CN(C(=O)NC(C)C)c4ccccc4[C@@H]3[C@@H]2CO)cc1`, the AC50 is > 10 µM (inactive).

As for `CCC(=O)N1[C@H](CO)[C@@H]2c3ccccc3N(S(=O)(=O)c3ccc(F)cc3)C[C@@H]21`, the AC50 is > 10 µM (inactive).

With `COc1ccc(CN(C)C[C@H]2OCc3cnnn3CCCC(=O)N([C@@H](C)CO)C[C@H]2C)cc1`, the AC50 was > 10 µM (inactive).

Turning to `Cc1noc(C)c1NC(=O)N(C)C[C@H]1OCc2cn(nn2)CCCC(=O)N([C@@H](C)CO)C[C@@H]1C`, the AC50 is > 10 µM (inactive).

For the molecule `C[C@H](CO)N1C[C@H](C)[C@H](CN(C)Cc2ccc3c(c2)OCCN3C)OCc2cnnn2CCCC1=O`, the AC50 was > 10 µM (inactive).

With `C[C@@H]1CN([C@@H](C)CO)C(=O)CCCn2nncc2CO[C@@H]1CN(C)S(=O)(=O)c1ccccc1C#N`, the AC50 is > 10 µM (inactive).

As for `CN1C[C@H]2[C@@H](c3ccccc31)[C@H](CO)N2Cc1ccccc1Cl`, the AC50 is > 10 µM (inactive).

Turning to `COCC(=O)NC[C@H]1[C@@H](c2ccccc2)[C@@H](CO)N1C(=O)c1ccccc1`, the AC50 is > 10 µM (inactive).

`COc1ccccc1S(=O)(=O)N(C)C[C@H]1OCc2cn(nn2)CCCC(=O)N([C@@H](C)CO)C[C@H]1C`: the AC50 is > 10 µM (inactive).

In the case of `CCCNC(=O)N1C[C@@H]2[C@H](c3ccccc31)[C@@H](CO)N2Cc1cccc(OC)c1`, the AC50 was > 10 µM (inactive).

Take `OC[C@@H]1[C@H]2c3ccccc3NC[C@H]2N1Cc1cccnc1`: the AC50 was > 10 µM (inactive).

In the case of `C[C@@H]1CN([C@@H](C)CO)C(=O)CCCn2nncc2CO[C@H]1CN(C)C(=O)NC1CCCC1`, the AC50 is > 10 µM (inactive).

For `CC(=O)N1[C@H](CNC(=O)C2CC2)[C@H](c2ccc(-c3ccccc3)cc2)[C@@H]1CO`, the AC50 is > 10 µM (inactive).

As for `COc1ccc(NC(=O)N2C[C@@H]3[C@H](c4ccccc42)[C@@H](CO)N3Cc2ccccn2)cc1`, the AC50 was > 10 µM (inactive).

In the case of `C/C=C/c1ccc([C@H]2[C@@H](CO)N(C(C)=O)[C@@H]2CN(CC)C(=O)CN(C)C)cc1`, the AC50 was > 10 µM (inactive).
